Reference: ChEMBL document CHEMBL1130420 (J Med Chem, 1997)

Experiments:
Estrogen receptor [1] = target: T1, Estrogen receptor (Homo sapiens, UniProt Q92731+P03372); assay: Relative Binding Affinity for estrogen receptor in Human Breast cancer or normal uterine cytosol in 3.3%ethanol compared to estradiol; assay type: protein assay; details: Uterus
[2] = target: T2, Estrogen receptor (Mus musculus) (UniProt O08537+P19785); assay: (§1) Uterine weight after 9 day treatment at 0.47 ug by oral gavage to ovariectomised mice without estrone; assay type: functional, tissue-based; details: Uterus
[3] = target: T2, Estrogen receptor (Mus musculus); assay: (§2) Uterine weight after 9 day treatment at 0.47 ug by oral gavage to ovariectomised mice with estrone; assay type: functional, tissue-based; details: Uterus
[4] = target: T2, Estrogen receptor (Mus musculus); assay: Uterine weight after 9 day treatment at 1.6 ug by oral gavage to ovariectomised mice without estrone; assay type: functional, tissue-based; details: Uterus
[5] = target: T2, Estrogen receptor (Mus musculus); assay: (§3) Uterine weight after 9 day treatment at 1.6 ug by oral gavage to ovariectomised mice with estrone; assay type: functional, tissue-based; details: Uterus
[6] = target: T2, Estrogen receptor (Mus musculus); assay: (§4) Uterine weight after 9 day treatment at 16 ug by oral gavage to ovariectomised mice without estrone; assay type: functional, tissue-based; details: Uterus
[7] = target: T2, Estrogen receptor (Mus musculus); assay: (§5) Uterine weight after 9 day treatment at 16 ug by oral gavage to ovariectomised mice with estrone; assay type: functional, tissue-based; details: Uterus
[8] = target: T2, Estrogen receptor (Mus musculus); assay: (§6) Uterine weight after 9 day treatment at 4.7 ug by oral gavage to ovariectomised mice without estrone; assay type: functional, tissue-based; details: Uterus
[9] = target: T2, Estrogen receptor (Mus musculus); assay: Uterine weight after 9 day treatment at 4.7 ug by oral gavage to ovariectomised mice with estrone; assay type: functional, tissue-based; details: Uterus
[10] = target: T2, Estrogen receptor (Mus musculus); assay: (§7) Uterine weight after 9 day treatment at 47 ug by oral gavage to ovariectomised mice without estrone; assay type: functional, tissue-based; details: Uterus
[11] = target: T2, Estrogen receptor (Mus musculus); assay: Uterine weight after 9 day treatment at 47 ug by oral gavage to ovariectomised mice with estrone; assay type: functional, tissue-based; details: Uterus
Estrogen receptor [12] = target: T1, Estrogen receptor
Description: Inhibition of estradiol binding to estrogen receptor in Human Breast cancer cytosol (3.3% ethanol)

Estrogen receptor [13] = target: T1, Estrogen receptor; details: t-47d
Description: Inhibition of estradiol-stimulated T-47D cell proliferation.

Estrogen receptor [14] = target: T1, Estrogen receptor; details: t-47d; remark: listed apart in the source
Description: Apparent binding affinity against estradiol-stimulated T-47D cell proliferation

Estrogen receptor [15] = target: T1, Estrogen receptor; assay: Stimulation of alkaline phosphatase activity in human endometrial Ishikawa cells with 1 nM E2 estradiol; assay type: functional, cell-based
[16] = target: T2, Estrogen receptor (Mus musculus); assay: as §1; assay type: functional, tissue-based; details: Uterus; remark: listed apart in the source
[17] = target: T2, Estrogen receptor (Mus musculus); assay: as §2; assay type: functional, tissue-based; details: Uterus; remark: listed apart in the source
[18] = target: T2, Estrogen receptor (Mus musculus); assay: as §3; assay type: functional, tissue-based; details: Uterus; remark: listed apart in the source
[19] = target: T2, Estrogen receptor (Mus musculus); assay: as §4; assay type: functional, tissue-based; details: Uterus; remark: listed apart in the source
[20] = target: T2, Estrogen receptor (Mus musculus); assay: as §5; assay type: functional, tissue-based; details: Uterus; remark: listed apart in the source
[21] = target: T2, Estrogen receptor (Mus musculus); assay: as §6; assay type: functional, tissue-based; details: Uterus; remark: listed apart in the source
[22] = target: T2, Estrogen receptor (Mus musculus); assay: as §6; assay type: functional, tissue-based; details: Uterus; remark: listed apart in the source
[23] = target: T2, Estrogen receptor (Mus musculus); assay: as §7; assay type: functional, tissue-based; details: Uterus; remark: listed apart in the source
[24] = target: T2, Estrogen receptor (Mus musculus); assay: as §7; assay type: functional, tissue-based; details: Uterus; remark: listed apart in the source
Estrogen receptor [25] = target: T1, Estrogen receptor; remark: listed apart in the source
Description: Apparent inhibition constant for estrogen receptor in Human uterine cytosol in 3.3%ethanol

T2 sequence (O08537 whole entry, looked up): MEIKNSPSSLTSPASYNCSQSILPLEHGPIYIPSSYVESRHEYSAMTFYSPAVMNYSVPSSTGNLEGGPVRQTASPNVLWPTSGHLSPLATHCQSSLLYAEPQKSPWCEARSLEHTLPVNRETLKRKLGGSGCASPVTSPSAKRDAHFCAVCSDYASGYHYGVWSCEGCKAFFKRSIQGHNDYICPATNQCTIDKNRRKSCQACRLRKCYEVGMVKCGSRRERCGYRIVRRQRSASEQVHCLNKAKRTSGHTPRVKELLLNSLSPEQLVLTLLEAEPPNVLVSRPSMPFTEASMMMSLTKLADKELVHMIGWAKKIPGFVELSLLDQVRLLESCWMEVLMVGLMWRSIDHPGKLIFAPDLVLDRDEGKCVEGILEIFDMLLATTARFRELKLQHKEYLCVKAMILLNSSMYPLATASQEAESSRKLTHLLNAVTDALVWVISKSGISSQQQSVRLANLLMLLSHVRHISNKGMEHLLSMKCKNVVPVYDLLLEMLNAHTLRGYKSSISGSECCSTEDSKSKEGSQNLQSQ
T2 sequence (P19785 whole entry, looked up): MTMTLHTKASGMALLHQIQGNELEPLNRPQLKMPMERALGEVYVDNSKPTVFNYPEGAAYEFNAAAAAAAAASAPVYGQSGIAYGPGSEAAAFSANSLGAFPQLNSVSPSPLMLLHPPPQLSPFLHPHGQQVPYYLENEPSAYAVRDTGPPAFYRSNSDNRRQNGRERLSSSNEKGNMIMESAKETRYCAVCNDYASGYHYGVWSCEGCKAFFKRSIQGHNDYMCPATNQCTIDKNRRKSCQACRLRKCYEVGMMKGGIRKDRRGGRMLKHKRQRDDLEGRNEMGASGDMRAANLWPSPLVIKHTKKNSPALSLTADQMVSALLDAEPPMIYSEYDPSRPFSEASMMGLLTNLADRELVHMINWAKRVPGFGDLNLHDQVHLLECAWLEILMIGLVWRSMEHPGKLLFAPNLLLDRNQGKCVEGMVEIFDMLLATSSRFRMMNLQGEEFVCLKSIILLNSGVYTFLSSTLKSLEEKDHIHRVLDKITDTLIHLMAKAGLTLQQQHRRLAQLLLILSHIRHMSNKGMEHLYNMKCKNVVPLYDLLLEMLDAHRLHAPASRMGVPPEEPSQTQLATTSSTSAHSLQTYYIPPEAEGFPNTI

| Weight [2] [mg] | Weight [3] [mg] | Weight [4] [mg] | Weight [5] [mg] | Weight [6] [mg] | Weight [7] [mg] | Weight [8] [mg] | Weight [9] [mg] | Weight [10] [mg] | Weight [11] [mg] | Ki (Estrogen receptor [12]) [nM] | IC50 (Estrogen receptor [13]) [nM] | Ki (Estrogen receptor [14]) [nM] | Structure (SMILES) | other results |
| --- | --- | --- | --- | --- | --- | --- | --- | --- | --- | --- | --- | --- | --- | --- |
| 16.5 | 83.1 | 17.2 | 88.6 | 15.7 | 75.7 | 19.8 | 91.2 | 18 | 61.1 | > 270 | 36.2 | 4.22 | CC1=C(c2ccc(OC(=O)C(C)(C)C)cc2)[C@@H](c2ccc(OCCN3CCCCC3)cc2)Oc2cc(OC(=O)C(C)(C)C)ccc21 | RBA (Estrogen receptor [1]): < 0.04 |
| – | – | – | – | – | – | – | – | – | – | – | 4.6 | 0.525 | Oc1ccc(C2=Cc3ccc(O)cc3OC2c2ccc(OCCN3CCCCC3)cc2)cc1 (stereo unspecified) | – |
| 19 | 72.9 | 24.1 | 53.4 | 19.4 | 28.9 | 24.5 | 33.3 | 21.1 | 31.7 | 4.71 | 0.14 | 0.016 | CC1=C(c2ccc(OC(=O)C(C)(C)C)cc2)[C@H](c2ccc(OCCN3CCCCC3)cc2)Oc2cc(OC(=O)C(C)(C)C)ccc21 | IC50 (Estrogen receptor [15]): 1.3 nM; Ki (Estrogen receptor [15]): 0.023 nM; Weight [16]: 21 mg; Weight [17]: 84 mg; Weight [18]: 53 mg; Weight [19]: 24 mg; Weight [20]: 29.2 mg; Weight [21]: 24.7 mg; Weight [22]: 35.3 mg; Weight [23]: 25 mg; Weight [24]: 28.1 mg; Ki (Estrogen receptor [25]): 11.14 nM |
